Reference: the supplement of paper PMC10307832

Experiments:
Experiment in all cases: relative viability (nuclei count vs DMSO), 5 days (fraction); higher = more cells survive
DM3189 + Vorinostat = compound: C1CN(CCN1)C2=CC=C(C=C2)C3=CN4C(=C(C=N4)C5=CC=NC6=CC=CC=C56)N=C3 [DM3189] + O=C(CCCCCCC(=O)Nc1ccccc1)NO [Vorinostat] (partner 1 µM)
Summary of the method: (§1)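 Five library-drug doses in √10 steps were combined with a fixed anchor-drug dose, or a single drug was given alone, by pin tool to lung cancer cell lines in 1536-well plates the day after seeding. Nuclei were stained and counted after 5 days. Relative viability is the nuclei count in treated wells over that in vehicle wells, taken as the median of duplicate plates.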

DM3189 + OSI-027 = compound: C1CN(CCN1)C2=CC=C(C=C2)C3=CN4C(=C(C=N4)C5=CC=NC6=CC=CC=C56)N=C3 [DM3189] + COc1cccc2cc(-c3nc([C@H]4CC[C@H](C(=O)O)CC4)n4ncnc(N)c34)[nH]c12 [OSI-027] (partner 0.5 µM)
Summary of the method: as §1

DM3189 + Luminespib = compound: C1CN(CCN1)C2=CC=C(C=C2)C3=CN4C(=C(C=N4)C5=CC=NC6=CC=CC=C56)N=C3 [DM3189] + CCNC(=O)c1noc(-c2cc(C(C)C)c(O)cc2O)c1-c1ccc(CN2CCOCC2)cc1 [Luminespib] (partner 0.01 µM)
Summary of the method: as §1

DM3189 + Trametinib = compound: C1CN(CCN1)C2=CC=C(C=C2)C3=CN4C(=C(C=N4)C5=CC=NC6=CC=CC=C56)N=C3 [DM3189] + CC(=O)Nc1cccc(-n2c(=O)n(C3CC3)c(=O)c3c(Nc4ccc(I)cc4F)n(C)c(=O)c(C)c32)c1 [Trametinib] (partner 0.02 µM)
Summary of the method: as §1

DM3189 + AZD7762 = compound: C1CN(CCN1)C2=CC=C(C=C2)C3=CN4C(=C(C=N4)C5=CC=NC6=CC=CC=C56)N=C3 [DM3189] + NC(=O)Nc1cc(-c2cccc(F)c2)sc1C(=O)N[C@H]1CCCNC1 [AZD7762] (partner 0.2 µM)
Summary of the method: as §1

DM3189 + Dasatinib = compound: C1CN(CCN1)C2=CC=C(C=C2)C3=CN4C(=C(C=N4)C5=CC=NC6=CC=CC=C56)N=C3 [DM3189] + Cc1nc(Nc2ncc(C(=O)Nc3c(C)cccc3Cl)s2)cc(N2CCN(CCO)CC2)n1 [Dasatinib] (partner 0.075 µM)
Summary of the method: as §1

DM3189 + Pemetrexed = compound: C1CN(CCN1)C2=CC=C(C=C2)C3=CN4C(=C(C=N4)C5=CC=NC6=CC=CC=C56)N=C3 [DM3189] + Nc1nc2[nH]cc(CCc3ccc(C(=O)N[C@@H](CCC(=O)O)C(=O)O)cc3)c2c(=O)[nH]1 [Pemetrexed] (partner 0.2 µM)
Summary of the method: as §1

DM3189 + Decitabine = compound: C1CN(CCN1)C2=CC=C(C=C2)C3=CN4C(=C(C=N4)C5=CC=NC6=CC=CC=C56)N=C3 [DM3189] + Nc1ncn([C@H]2C[C@H](O)[C@@H](CO)O2)c(=O)n1 [Decitabine] (partner 2 µM)
Summary of the method: as §1

DM3189 + Phenformin = compound: C1CN(CCN1)C2=CC=C(C=C2)C3=CN4C(=C(C=N4)C5=CC=NC6=CC=CC=C56)N=C3 [DM3189] + N=C(N)NC(=N)NCCc1ccccc1 [Phenformin] (partner 250 µM)
Summary of the method: as §1

DM3189 + Tozasertib = compound: C1CN(CCN1)C2=CC=C(C=C2)C3=CN4C(=C(C=N4)C5=CC=NC6=CC=CC=C56)N=C3 [DM3189] + Cc1cc(Nc2cc(N3CCN(C)CC3)nc(Sc3ccc(NC(=O)C4CC4)cc3)n2)n[nH]1 [Tozasertib] (partner 0.1 µM)
Summary of the method: as §1

DM3189 + Palbociclib = compound: C1CN(CCN1)C2=CC=C(C=C2)C3=CN4C(=C(C=N4)C5=CC=NC6=CC=CC=C56)N=C3 [DM3189] + CC(=O)c1c(C)c2cnc(Nc3ccc(N4CCNCC4)cn3)nc2n(C2CCCC2)c1=O [Palbociclib] (partner 0.5 µM)
Summary of the method: as §1

DM3189 + Foretinib = compound: C1CN(CCN1)C2=CC=C(C=C2)C3=CN4C(=C(C=N4)C5=CC=NC6=CC=CC=C56)N=C3 [DM3189] + COc1cc2c(Oc3ccc(NC(=O)C4(C(=O)Nc5ccc(F)cc5)CC4)cc3F)ccnc2cc1OCCCN1CCOCC1 [Foretinib] (partner 0.25 µM)
Summary of the method: as §1

DM3189 + Olaparib = compound: C1CN(CCN1)C2=CC=C(C=C2)C3=CN4C(=C(C=N4)C5=CC=NC6=CC=CC=C56)N=C3 [DM3189] + O=C(c1cc(Cc2n[nH]c(=O)c3ccccc23)ccc1F)N1CCN(C(=O)C2CC2)CC1 [Olaparib] (partner 8 µM)
Summary of the method: as §1

DM3189 = compound: C1CN(CCN1)C2=CC=C(C=C2)C3=CN4C(=C(C=N4)C5=CC=NC6=CC=CC=C56)N=C3 [DM3189]
Summary of the method: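 Nuclei counted with MetaXpress define viability as the ratio of treated to vehicle wells, given as a median across plates. The lung cancer cell lines were in 1536-well plates, pinned with five √10-spaced library-drug doses and imaged at 4× after 5 days and Hoechst staining. Plates passed with control CV below 25% and at least one doubling.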

NCI-H2342
relative viability (DM3189 + Vorinostat; first compound 0.08 µM): 0.702
relative viability (DM3189 + Vorinostat; first compound 0.253 µM): 0.692
relative viability (DM3189 + Vorinostat; first compound 0.8 µM): 0.843
relative viability (DM3189 + Vorinostat; first compound 2.53 µM): 0.668
relative viability (DM3189 + OSI-027; first compound 0.08 µM): 0.658
relative viability (DM3189 + OSI-027; first compound 0.253 µM): 0.626
relative viability (DM3189 + OSI-027; first compound 0.8 µM): 0.622
relative viability (DM3189 + OSI-027; first compound 2.53 µM): 0.552
relative viability (DM3189 + Luminespib; first compound 0.08 µM): 0.916
relative viability (DM3189 + Luminespib; first compound 0.253 µM): 0.66
relative viability (DM3189 + Luminespib; first compound 0.8 µM): 0.845
relative viability (DM3189 + Luminespib; first compound 2.53 µM): 0.702
relative viability (DM3189 + Trametinib; first compound 0.08 µM): 0.805
relative viability (DM3189 + Trametinib; first compound 0.253 µM): 0.843
relative viability (DM3189 + Trametinib; first compound 0.8 µM): 0.844
relative viability (DM3189 + Trametinib; first compound 2.53 µM): 0.74
relative viability (DM3189 + AZD7762; first compound 0.08 µM): 0.44
relative viability (DM3189 + AZD7762; first compound 0.253 µM): 0.533
relative viability (DM3189 + AZD7762; first compound 0.8 µM): 0.54
relative viability (DM3189 + AZD7762; first compound 2.53 µM): 0.478
relative viability (DM3189 + Dasatinib; first compound 0.08 µM): 0.291
relative viability (DM3189 + Dasatinib; first compound 0.253 µM): 0.3
relative viability (DM3189 + Dasatinib; first compound 0.8 µM): 0.299
relative viability (DM3189 + Dasatinib; first compound 2.53 µM): 0.332
relative viability (DM3189 + Pemetrexed; first compound 0.08 µM): 0.954
relative viability (DM3189 + Pemetrexed; first compound 0.253 µM): 0.745
relative viability (DM3189 + Pemetrexed; first compound 0.8 µM): 0.802
relative viability (DM3189 + Pemetrexed; first compound 2.53 µM): 0.847
relative viability (DM3189 + Decitabine; first compound 0.08 µM): 0.747
relative viability (DM3189 + Decitabine; first compound 0.253 µM): 0.679
relative viability (DM3189 + Decitabine; first compound 0.8 µM): 0.718
relative viability (DM3189 + Decitabine; first compound 2.53 µM): 0.688
relative viability (DM3189 + Phenformin; first compound 0.08 µM): 0.625
relative viability (DM3189 + Phenformin; first compound 0.253 µM): 0.594
relative viability (DM3189 + Phenformin; first compound 0.8 µM): 0.595
relative viability (DM3189 + Phenformin; first compound 2.53 µM): 0.498
relative viability (DM3189 + Tozasertib; first compound 0.08 µM): 0.599
relative viability (DM3189 + Tozasertib; first compound 0.253 µM): 0.526
relative viability (DM3189 + Tozasertib; first compound 0.8 µM): 0.541
relative viability (DM3189 + Tozasertib; first compound 2.53 µM): 0.483
relative viability (DM3189 + Palbociclib; first compound 0.08 µM): 0.509
relative viability (DM3189 + Palbociclib; first compound 0.253 µM): 0.489
relative viability (DM3189 + Palbociclib; first compound 0.8 µM): 0.532
relative viability (DM3189 + Palbociclib; first compound 2.53 µM): 0.512
relative viability (DM3189 + Foretinib; first compound 0.08 µM): 1.08
relative viability (DM3189 + Foretinib; first compound 0.253 µM): 0.912
relative viability (DM3189 + Foretinib; first compound 0.8 µM): 1.08
relative viability (DM3189 + Foretinib; first compound 2.53 µM): 0.965
relative viability (DM3189 + Olaparib; first compound 0.08 µM): 0.417
relative viability (DM3189 + Olaparib; first compound 0.253 µM): 0.473
relative viability (DM3189 + Olaparib; first compound 0.8 µM): 0.477
relative viability (DM3189 + Olaparib; first compound 2.53 µM): 0.468
relative viability (DM3189; 0.08 µM): 0.988
relative viability (DM3189; 0.253 µM): 0.99
relative viability (DM3189; 0.8 µM): 0.948
relative viability (DM3189; 2.53 µM): 0.97

SW 900
relative viability (DM3189 + Vorinostat; first compound 0.08 µM): 0.469
relative viability (DM3189 + Vorinostat; first compound 0.8 µM): 0.442
relative viability (DM3189 + Vorinostat; first compound 2.53 µM): 0.383
relative viability (DM3189 + OSI-027; first compound 0.08 µM): 0.618
relative viability (DM3189 + OSI-027; first compound 0.253 µM): 0.544
relative viability (DM3189 + OSI-027; first compound 0.8 µM): 0.584
relative viability (DM3189 + OSI-027; first compound 2.53 µM): 0.606
relative viability (DM3189 + Luminespib; first compound 0.08 µM): 0.174
relative viability (DM3189 + Luminespib; first compound 0.253 µM): 0.166
relative viability (DM3189 + Luminespib; first compound 0.8 µM): 0.156
relative viability (DM3189 + Luminespib; first compound 2.53 µM): 0.196
relative viability (DM3189 + Trametinib; first compound 0.08 µM): 0.818
relative viability (DM3189 + Trametinib; first compound 0.8 µM): 0.832
relative viability (DM3189 + Trametinib; first compound 2.53 µM): 0.941
relative viability (DM3189 + AZD7762; first compound 0.08 µM): 0.574
relative viability (DM3189 + AZD7762; first compound 0.8 µM): 0.515
relative viability (DM3189 + AZD7762; first compound 2.53 µM): 0.645
relative viability (DM3189 + Dasatinib; first compound 0.08 µM): 0.733
relative viability (DM3189 + Dasatinib; first compound 0.253 µM): 0.373
relative viability (DM3189 + Dasatinib; first compound 0.8 µM): 0.449
relative viability (DM3189 + Dasatinib; first compound 2.53 µM): 0.567
relative viability (DM3189 + Pemetrexed; first compound 0.08 µM): 0.505
relative viability (DM3189 + Pemetrexed; first compound 0.8 µM): 0.44
relative viability (DM3189 + Pemetrexed; first compound 2.53 µM): 0.581
relative viability (DM3189 + Decitabine; first compound 0.08 µM): 0.467
relative viability (DM3189 + Decitabine; first compound 0.8 µM): 0.424
relative viability (DM3189 + Decitabine; first compound 2.53 µM): 0.407
relative viability (DM3189 + Phenformin; first compound 0.08 µM): 0.599
relative viability (DM3189 + Phenformin; first compound 0.253 µM): 0.465
relative viability (DM3189 + Phenformin; first compound 0.8 µM): 0.535
relative viability (DM3189 + Phenformin; first compound 2.53 µM): 0.568
relative viability (DM3189 + Tozasertib; first compound 0.08 µM): 0.604
relative viability (DM3189 + Tozasertib; first compound 0.253 µM): 0.509
relative viability (DM3189 + Tozasertib; first compound 0.8 µM): 0.446
relative viability (DM3189 + Tozasertib; first compound 2.53 µM): 0.437
relative viability (DM3189 + Palbociclib; first compound 0.08 µM): 0.464
relative viability (DM3189 + Palbociclib; first compound 0.8 µM): 0.45
relative viability (DM3189 + Palbociclib; first compound 2.53 µM): 0.479
relative viability (DM3189 + Foretinib; first compound 0.08 µM): 0.996
relative viability (DM3189 + Foretinib; first compound 0.253 µM): 0.875
relative viability (DM3189 + Foretinib; first compound 0.8 µM): 0.794
relative viability (DM3189 + Foretinib; first compound 2.53 µM): 0.728
relative viability (DM3189 + Olaparib; first compound 0.08 µM): 0.801
relative viability (DM3189 + Olaparib; first compound 0.8 µM): 0.886
relative viability (DM3189 + Olaparib; first compound 2.53 µM): 0.897
relative viability (DM3189; 0.08 µM): 1.06
relative viability (DM3189; 0.253 µM): 0.694
relative viability (DM3189; 0.8 µM): 0.882
relative viability (DM3189; 2.53 µM): 0.887
